Source: paper doi:10.64898/2025.12.03.692196v2, “Dimerization and Threonine-Dependent Stabilization Govern Human YRDC Catalysis” (biorxiv, 2026)
Substitutions are numbered along the chain they refer to. Blank lines part the entries; values can stand above or below the compound they belong to.

Experiments:
Assay in all cases: biochemical
Set-up in all cases: SYPRO Orange DSF; apparent Kd from Tm versus ligand concentration
[1] = target: T1, YRDCWT (human YRDC, ΔN43) (Homo sapiens, UniProt Q86U90, I221T); conditions: DSF apparent KD
T1 construct: lacks first 43 residues (N-terminal truncation); N-terminal His6 tag removed with TEV; E. coli BL21(DE3); homodimer
T1 sequence (Q86U90 44-279 I221T): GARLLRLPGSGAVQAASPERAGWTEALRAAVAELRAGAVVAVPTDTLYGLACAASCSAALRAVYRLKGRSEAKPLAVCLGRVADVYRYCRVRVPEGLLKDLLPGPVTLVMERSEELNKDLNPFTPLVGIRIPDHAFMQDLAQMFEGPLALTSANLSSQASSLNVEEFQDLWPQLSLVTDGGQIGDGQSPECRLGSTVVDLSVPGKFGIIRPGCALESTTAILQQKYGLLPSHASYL
Description: (§1) Reactions were prepared in a MicroAmp™ 96-well optical reaction plate (Fisher Scientific) with a final volume of 20 μL per well, in assay buffer (50 mM Tricine pH 8.5, 10 mM MgCl₂) with 8 μM YRDC, and 5X SYPRO Orange dye (Invitrogen). The concentrations of substrates, including ATP, L-threonine, and NaHCO3, were varied based on the reaction type. In most cases wild-type YRDC and its mutants were assessed under various conditions, including enzyme alone, enzyme with ATP concentrations ranging from 10 µM to 500 µM, enzyme with L-threonine concentrations between 0.5 mM and 50 mM, either in the presence or absence of 500 µM ATP, and enzyme with NaHCO3 concentrations from 10 mM to 500 mM in the presence of both 500 µM ATP and 25 mM L-threonine. Fluorescence emission was recorded using Applied Biosystems® QuantStudio 1 Real-Time PCR system (λex = 520 nm, λem = 558 nm). Temperature increases were performed over the range of 25–95 °C, with increments of 1 °C/min, while changes in fluorescence intensity were continuously measured. Each experiment was conducted in triplicate, and the data are presented as the mean ± standard deviation. Control reactions, prepared without the enzyme, were used to account for background fluorescence and were subtracted from experimental measurements. Melting curves were fitted using a Boltzmann sigmoidal model, and thermal stability (Tₘ) values were determined from the inflection point of the curve. The dissociation constant (KD) of the enzyme with each substrate is calculated based on the DSF single binding equation[45]: [drawing 1] Where Tm,0 and Tm,∞refer to the melting temperature (Tm) in °C at zero and infinite ligand concentrations, respectively, P represents the protein concentration and Kd,app is the apparent dissociation constant obtained from ligand-dependent thermal stabilisation.

[2] = target: T2, YRDCWT (human YRDC, ΔN43) (Homo sapiens, UniProt Q86U90); conditions: DSF apparent KD
T2 construct: lacks first 43 residues (N-terminal truncation); N-terminal His6 tag removed with TEV; E. coli BL21(DE3); homodimer
T2 sequence (Q86U90 44-279 C121A): T1 sequence (Q86U90 44-279 I221T) with C78A, T178I
Description: as §1

(human YRDC, ΔN43) = target: T3, (human YRDC, ΔN43) (Homo sapiens, UniProt Q86U90, A84V); conditions: With ATP and L-threonine; DSF apparent KD
T3 construct: lacks first 43 residues (N-terminal truncation); N-terminal His6 tag removed with TEV; E. coli BL21(DE3); homodimer
T3 sequence (Q86U90 44-279 A84V): T1 sequence (Q86U90 44-279 I221T) with A41V, T178I
Description: as §1

[3] = target: T4, YRDCWT (human YRDC, ΔN43) (Homo sapiens, UniProt Q86U90, R253K); conditions: With L-threonine; DSF apparent KD
T4 construct: lacks first 43 residues (N-terminal truncation); N-terminal His6 tag removed with TEV; E. coli BL21(DE3); homodimer
T4 sequence (Q86U90 44-279 R253K): T1 sequence (Q86U90 44-279 I221T) with T178I, R210K
Description: as §1

[4] = target: T5, YRDCWT (human YRDC, ΔN43) (Homo sapiens, UniProt Q86U90, C121A); conditions: With L-threonine; DSF apparent KD
T5 construct: lacks first 43 residues (N-terminal truncation); N-terminal His6 tag removed with TEV; E. coli BL21(DE3); homodimer
T5 sequence (Q86U90 44-279 C121A): T1 sequence (Q86U90 44-279 I221T) with C78A, T178I
Description: as §1

YRDCS195A = target: T6, YRDCS195A (Homo sapiens, UniProt Q86U90, S238A); conditions: With L-threonine; DSF apparent KD
T6 construct: gene YRDC; lacks N-terminal 43 residues; printed numbering S195A is of the truncated protein
T6 sequence (Q86U90 1-279 S238A): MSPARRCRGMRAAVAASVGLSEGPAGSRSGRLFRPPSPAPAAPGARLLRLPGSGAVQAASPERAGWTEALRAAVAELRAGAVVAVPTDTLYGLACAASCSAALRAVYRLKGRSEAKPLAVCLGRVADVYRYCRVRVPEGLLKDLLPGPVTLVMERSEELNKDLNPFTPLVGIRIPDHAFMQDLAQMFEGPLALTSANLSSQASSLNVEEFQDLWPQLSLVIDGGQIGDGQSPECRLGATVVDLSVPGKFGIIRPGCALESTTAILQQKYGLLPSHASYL
Description: as §1

[5] = target: T7, YRDCWT (human YRDC, ΔN43) (Homo sapiens, UniProt Q86U90); conditions: With ATP; DSF apparent KD
T7 construct: lacks first 43 residues (N-terminal truncation); N-terminal His6 tag removed with TEV; E. coli BL21(DE3); homodimer
T7 sequence (Q86U90 with tags, fused parts or gaps DEL265-265): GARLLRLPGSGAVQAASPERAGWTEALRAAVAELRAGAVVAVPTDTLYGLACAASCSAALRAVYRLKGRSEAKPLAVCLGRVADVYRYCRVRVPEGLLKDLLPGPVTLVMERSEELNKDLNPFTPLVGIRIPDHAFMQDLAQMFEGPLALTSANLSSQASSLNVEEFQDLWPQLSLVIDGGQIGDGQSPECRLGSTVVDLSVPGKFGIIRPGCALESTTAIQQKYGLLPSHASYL
Description: as §1

Kd ([1]; With ATP and L-threonine): 8300 ± 4200 µM
Kd ([2]; With ATP and L-threonine): 3700 ± 2000 µM
Kd ((human YRDC, ΔN43)): 6500 ± 2000 µM
Compound: O=C(O)O [bicarbonate]

Kd [3]: 148 ± 112 µM
Kd [4]: 133 ± 29.7 µM
Kd (YRDCS195A): 48.9 ± 37.8 µM
Compound: Nc1ncnc2c1ncn2[C@@H]1O[C@H](COP(=O)(O)OP(=O)(O)OP(=O)(O)O)[C@@H](O)[C@H]1O [ATP]

Kd [5]: 2100 ± 700 µM
Kd ([1]; With ATP): 400 ± 100 µM
Kd ([2]; With ATP): 1200 ± 300 µM
Compound: C[C@@H](O)[C@H](N)C(=O)O [L-threonine]
